{"source": "paper PMC10892288", "about": "“Early Stage Preclinical Formulation Strategies to Alter the Pharmacokinetic Profile of Two Small Molecule Therapeutics” (Pharmaceuticals, 2024)", "key": {"[1]": {"assay": "Permeability (physiochemical properties)", "assay_type": "in vitro ADME"}, "[2]": {"assay": "Log P (physiochemical properties)", "assay_type": "physicochemical"}, "TEAD": {"system": "TEAD", "parameters": "method as in PMID 33679401", "conditions": "cellular assays; read-out: half-maximal inhibitory concentration (IC50) in cellular assays; cited from earlier work"}, "[3]": {"assay": "Vehicle screening for solution or suspension formulations", "assay_type": "physicochemical", "method": "Based on the target concentration, G7883 was screened at 3.3 mg/mL in three different vehicles of 100%PEG400, 10%DMSO in 90%PEG400, and 20%DMSO in 80%PEG400 to generate a stable solution. […] A total of 50% DMSO is the maximum amount compatible with the iPRECIO pump system. Based on the target concentration, G6893 was screened at 5 mg/mL in four different vehicles as follows: 100% PEG400, 20% DMSO in 80% PEG400, 20% DMA and 40% PG in 40% PEG400, and 10% EtOH and 20% HPbCD in 70% water at pH 4.5. G6893 achieved a solution at the target concentration of 5 mg/mL in 100% PEG400 and maintained a solution without precipitation after dilution in PBS buffer.\nG7883 was screened in different oil vehicles including corn, coconut, paraffin, soybean, and sunflower oil."}, "[4]": {"assay": "Mouse PK of G7883, IP in MCT vehicle", "assay_type": "in vivo, female NSG mice", "conditions": "for AUC(0-t) / Cmax / Tmax / half-life: female, NSG, plasma; for half-life: ip", "method": "A total of 0.6% w/v Methylcellulose, 0.2% w/v Tween 80 in water (MCT) was prepared by slowly adding Methylcellulose (Methylocel A15 LV; CAS 9004-67-5, Part ID: 64605-500G-F 27.5-31.5% Methoxyl basis, Sigma-Aldrich, St. Louis, MO, USA) in small portions to prevent clumping while stirring into water at 70–80 °C. Once a homogeneous suspension formed, Tween 80 (Polysorbate 80; CAS#9005-65-6 (Polyoxyethylene (20) Sorbitan Monooleate; Tween 80) Part ID: PO138, Spectrum Chemical, New Brunswick, NJ, USA) was added and stirred until fully dissolved. Vehicle was filtered through 0.22 µm PES (Corning REF no. 431098) prior to adding to the compound for dosing. Respective compound was added based on the target concentration to the MCT vehicle and stirred at 35 °C until the power was well-dispersed. Formulations were homogenized through a polytron homogenizer and then sonicated in a water bath sonicator until a homogeneous suspension was achieved.\nG7883 was dosed in three female NSG mice in-house with body weight ranging from 20 to 25 g. Three mice were given an IP dose of G7883 formulated in the MCT vehicle at 50 mpk and 150 mpk with a 5 mL/kg dosing volume. A total of 10 µL of blood was collected serially at 0.25, 0.5, 1, 3, 7, and 24 h post-dose and diluted in 40 µL of the potassium K2EDTA water. The frozen blood samples were stored at −70 °C or lower until analysis.\nAll plasma and cell media concentrations of G7883 and G6893 were determined using liquid chromatography–tandem mass spectrometry after protein precipitation with acetonitrile and injection of the supernatant onto the column (Waters ACQUITY UPLC BEH C18 1.7 μm, 2.1 × 50 mm for G7883 and G6893). The aqueous mobile phase was 0.1% formic acid, 2 mM ammonium formate in water/acetonitrile (v:v, 95:5), and the organic mobile phase was 0.1% formic acid, 2 mM ammonium formate in acetonitrile/water (v:v, 95:5). An AB Sciex API 4000 Triple Quad instrument was used for detecting G7883 and G6893 (Figure S2). The electrospray ionization source in both columns was operated in the positive ion and multiple reaction monitoring (MRM) detection modes. The MRM transitions for G7883 and G6893 were m/z 462.2 (Q1) and 253.10 (Q3) and m/z 454.2 (Q1) and 325.9 (Q3), respectively. The dynamic range of both assays was 0.50–50.0 ng/mL, and the total run time was 1.6 min. The lower limit of quantitation of the assay was […], and the dilution quality control concentration was set at 10 ng/mL with acceptance criteria for accuracy and precision of 25%.\nAll plasma and cell media concentrations of G7883 were determined using liquid chromatography–tandem mass spectrometry after protein precipitation with acetonitrile and injection of the supernatant onto the column (Phenomenex Kinetex XB-C18, 30 × 2.1 mm, 2.6 µm). The aqueous mobile phase was 10 mM of ammonium formate in water, and the organic mobile phase was 0.1% formic acid in acetonitrile. An AB Sciex API 5500 Triple Quad instrument was used for detecting G7883. The electrospray ionization source in both columns was operated in the positive ion and MRM detection modes. The MRM transitions for G7883 were m/z 462.2 (Q1) and 253.10 (Q3), respectively. The dynamic range of the assay was 0.50–50.0 ng/mL, and the total run time was 2 min. The lower limit of quantitation of the assay was […], and the dilution quality control concentration was set at 10 ng/mL with acceptance criteria for accuracy and precision of 25%."}, "[5]": {"assay": "Water solubility (physiochemical properties)", "assay_type": "physicochemical", "conditions": "water"}, "[6]": {"assay": "pKa (physiochemical properties)", "assay_type": "physicochemical", "source_text": "Table 1 Physiochemical properties of […] and […]. | column: […]; […]"}, "[7]": {"conditions": "50 mg/kg, IP 50 mpk, MCT vehicle, mean"}, "[8]": {"conditions": "150 mg/kg, IP 150 mpk, MCT vehicle, mean"}}, "data": [{"molecule": "Cc1nccnc1-c1nn2c(=O)cc(-c3ccc(C4CCCCC4)cc3)[nH]c2c1C(=O)N1CC(CF)C1", "note": "[G7883, 5-(4-cyclohexylphenyl)-3-[3-(fluoromethyl)azetidine-1-carbonyl]-2-(3-methylpyrazin-2-yl)-4H-pyrazolo[1,5-a]pyrimidin-7-one]", "values": [{"measurement": "permeability (in words)", "setting": "[1]", "value": "moderate permeability"}, {"measurement": "Papp", "setting": "[1]; not told", "value": 5.79, "unit": "×10⁻⁶ cm/s"}, {"measurement": "logP", "setting": "[2]", "value": 1.83}, {"measurement": "IC50", "setting": "TEAD", "value": 1.4, "unit": "µM"}, {"measurement": "concentration at which a solution was achieved", "setting": "[3]; 20%DMSO in 80%PEG400", "value": "≥ 3300", "unit": "µg/mL"}, {"measurement": "solubility in oil vehicle (in words)", "setting": "[3]; sunflower oil", "value": "moderate solubility"}, {"measurement": "increase of AUC coverage, IP versus PO", "setting": "[4]; IP 150 mpk compared with PO 250 mpk", "value": "approximately 10 fold"}, {"measurement": "t1/2", "setting": "[4]; IP 150 mpk, MCT vehicle, mean, 150 mg/kg", "value": 1.53, "unit": "h"}, {"measurement": "AUC(0-t)", "setting": "[4]; [7]", "value": 31.2, "unit": "µM·h"}, {"measurement": "Cmax", "setting": "[4]; [7]", "value": 23.9, "unit": "µM"}, {"measurement": "Tmax", "setting": "[4]; [7]", "value": 1, "unit": "h"}, {"measurement": "AUC(0-t)", "setting": "[4]; [8]", "value": 217, "unit": "µM·h"}, {"measurement": "Cmax", "setting": "[4]; [8]", "value": 69.2, "unit": "µM"}, {"measurement": "Tmax", "setting": "[4]; [8]", "value": 1, "unit": "h"}, {"measurement": "half-life", "setting": "[4]; [7]", "value": 0.895, "unit": "h"}, {"measurement": "half-life", "setting": "[4]; [8]", "value": 1.5, "unit": "h"}, {"measurement": "solubility", "setting": "[5]", "value": 85, "unit": "µg/mL"}, {"measurement": "pKa", "setting": "[6]", "value": 5.51}]}]}
